The values that follow come from article PMC3686795, “CD38 Structure-Based Inhibitor Design Using the N1-Cyclic Inosine 5′-Diphosphate Ribose Template” (PLoS ONE, 2013).

The target in data set [1] is T1, wild-type CD38 (cADPR hydrolase activity) (Homo sapiens, UniProt P28907, N100D/N164A/N209D/N219D).
T1 construct: Crystal structure of human CD38 extracellular domain; made in house
T1 sequence (P28907 45-300 N100D/N164A/N209D/N219D limits assumed): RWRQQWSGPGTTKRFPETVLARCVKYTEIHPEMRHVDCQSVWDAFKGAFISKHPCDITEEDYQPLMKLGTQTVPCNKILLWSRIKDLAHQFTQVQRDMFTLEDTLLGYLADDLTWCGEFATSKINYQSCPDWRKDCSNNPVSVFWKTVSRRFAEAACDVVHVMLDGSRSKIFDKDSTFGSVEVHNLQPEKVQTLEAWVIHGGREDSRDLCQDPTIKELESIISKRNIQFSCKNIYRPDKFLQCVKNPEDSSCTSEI
Briefly: Enzymatic assay for cADPR hydrolysis (inhibition of CD38-catalyzed cADPR hydrolysis, fluorimetric cycling assay). It counts as biochemical. Conditions: for Fold improvement of IC50 over N1-cIDPR (cADPR hydrolysis): relative to N1-cIDPR, IC50 276 µM. Here is the method:
The reaction was stopped by the addition of 150 mM HCl. The precipitated protein was filtered, and the pH was neutralized with Tris base. After diluting the mixture 20-fold, the concentration of the unhydrolyzed cADPR present in the diluted reaction mixture was assayed by the fluorimetric cycling assay as previously described.

The target in data set [2] is T2, CD38 NAD+ glycohydrolase activity (Homo sapiens, UniProt P28907, N100D/N164A/N209D/N219D).
T2 construct: Crystal structure of human CD38 extracellular domain; made in house
T2 sequence (P28907 45-300 N100D/N164A/N209D/N219D limits assumed): T1 sequence (P28907 45-300 N100D/N164A/N209D/N219D limits assumed)
Kind of data set: Enzymatic assay for NAD+ hydrolase (NADase) activity of CD38. Conditions: 1 µM NAD+, 0.1 µg/mL CD38, 1 min, 20–24°C, pH 4.5; Figure S1; read-out: IC50, inhibition of NADase activity of CD38. It counts as biochemical. Here is the method: The reaction was stopped by addition of 150 mM HCl, filtered and assayed for NAD^+ by the fluorimetric cycling assay as previously described.

A further data set concerns the target T3, CD38 (Homo sapiens, UniProt P28907, N100D/N164A/N209D/N219D).
T3 construct: Crystal structure of human CD38 extracellular domain; made in house
T3 sequence (P28907 45-300 N100D/N164A/N209D/N219D limits assumed): T1 sequence (P28907 45-300 N100D/N164A/N209D/N219D limits assumed)
Briefly: Incubation with CD38, nucleotide profile by HPLC (stability towards cleavage). It counts as in vitro ADME. Conditions: HPLC after 18 h; data not shown.

Another data set has as its system Jurkat T-cells. Set-up: method as in PMID 15932322. Conditions: cited from earlier work.
The subject of data set [3] is sea urchin egg homogenate. Set-up: method as in PMID 11535079. The conditions noted are these: cited from earlier work.
[4] abbreviates: 1 µM cADPR, 2 µg/mL CD38, pH 4.5, inhibitor tested 0–1 mM, read-out: IC50, inhibition of cADPR hydrolysis by CD38.
[5] abbreviates: extrapolated beyond the tested range 0–1 mM, read-out: IC50, inhibition of cADPR hydrolysis, estimated by projection.
Where [6] appears, read: 1 µM cADPR, 2 µg/mL CD38, 10 min, 20–24°C, pH 4.5, read-out: IC50, inhibition of cADPR hydrolysis by CD38.

Read-outs that look alike come from different tables or passages of the source.

What is called IC50 is the concentration that gives 50% inhibition. Consider `NCCCCNc1nc2c(=O)n3cnc2n1[C@@H]1O[C@H](COP(=O)(O)OP(=O)(O)OC[C@H]2O[C@@H]3[C@H](O)[C@@H]2O)[C@@H](O)[C@H]1O` [8-(4-Aminobutane)amino N1-cIDPR, 8-(4-aminobutane)amino N1-cIDPR], for which the IC50 in data set [1] (setting [4]) was over 1000 µM; in data set [1] (setting [5]), about 2000 µM.

In the case of `Nc1nc2c(=O)n([C@@H]3O[C@H](COP(=O)(O)O)[C@@H](O)[C@H]3O)cnc2[nH]1` [8-Amino N1-IMP, 8-amino N1-IMP], the IC50 in data set [1] (setting [6]) is 7.6 µM.

As to `Nc1nc2c(=O)n3cnc2n1[C@@H]1O[C@H](COP(=O)(O)OP(=O)(O)OC[C@H]2O[C@@H]3[C@H](O)[C@@H]2O)[C@@H](O)[C@H]1O` [8-Amino N1-cIDPR, 8-amino N1-cIDPR], the IC50 in data set [1] (setting [6]) is 56 µM; in data set [2], 21 µM. In data set [1], the “Fold improvement of IC50 over N1-cIDPR (cADPR hydrolysis)” value is “over 5 fold”. Regarding `O=c1c2nc(Br)[nH]c2ncn1[C@@H]1O[C@H](COP(=O)(O)O)[C@@H](O)[C@H]1O` [8-Bromo N1-IMP], the IC50 in data set [1] (setting [6]) was determined as 201 µM. `O=c1c2nc(Br)n3c2ncn1[C@@H]1O[C@H](COP(=O)(O)OP(=O)(O)OC[C@H]2O[C@@H]3[C@H](O)[C@@H]2O)[C@@H](O)[C@H]1O` [8-Bromo N1-cIDPR, 8-bromo N1-cIDPR]: the “Change in nucleotide profile after incubation with CD38” value at CD38 was “no change in the nucleotide profile”. Regarding `O=c1c2nc(I)[nH]c2ncn1[C@@H]1O[C@H](COP(=O)(O)O)[C@@H](O)[C@H]1O` [8-Iodo N1-IMP, 8-iodo N1-IMP], the IC50 in data set [1] (setting [4]) is over 1000 µM; in data set [1] (setting [5]) it was about 1240 µM.

Regarding `O=c1c2nc[nH]c2ncn1[C@@H]1O[C@H](COP(=O)(O)O)[C@@H](O)[C@H]1O` [N1-IMP, N1-inosine 5′-monophosphate], the IC50 in data set [1] (setting [6]) is 14 µM. Also, the “Fold improvement of IC50 over N1-cIDPR (cADPR hydrolysis)” value in data set [1] is given as about 20 fold.

Turning to `O=c1c2ncn3c2ncn1[C@@H]1O[C@H](COP(=O)(O)OP(=O)(O)OC[C@H]2O[C@@H]3[C@H](O)[C@@H]2O)[C@@H](O)[C@H]1O` [N1-cIDPR, cyclic inosine 5′-diphosphoribose], the “Ca2+ release compared with cADPR” value with Jurkat T-cells is recorded as “almost indistinguishable from Ca^2+ release induced by cADPR”. With `N=c1c2ncn3c2ncn1[C@@H]1C[C@H](COP(=O)(O)OP(=O)(O)OC[C@H]2O[C@@H]3[C@H](O)[C@@H]2O)[C@@H](O)[C@H]1O` [cADPcR, cyclic ADP-carbocyclic ribose, reference compound], in data set [3], the “Ca2+ release activity” value is reported as “potent Ca^2+ release agent”. In addition, the IC50 in data set [1] (setting [6]) is 129 µM.
